Several values for one entry are separate records, joined by “and”; a condition that tells them apart may be missing. Identical values can stand only once. Like-named read-outs stand apart in the source and are kept apart here.
Key:
[1] = tested on: B16-F10; experiment: Cytotoxicity to tumor cells, MTT assay; assay type: cell-based; conditions: Mus musculus, 24 h, mean ± S.D (n = 3), read-out: IC50 B16F10
[2] = tested on: CT26.WT; experiment: Cytotoxicity to tumor cells, MTT assay; assay type: cell-based; conditions: Mus musculus, mean ± S.D (n = 3)
Experimental: Mouse melanoma cell line B16-F10 (ATCC® Number: CRL-6475™) and mouse cell line CT26.WT (TCM37) were obtained from Cell Culture Center of the Institute of Basic Medical Sciences, Chinese Academy of Medical Sciences. The cells were maintained in DMEM supplemented with 10% (v/v) heat-inactivated fetal bovine serum (FBS) in a humidified 5% CO2 atmosphere at 37 °C. Tumor cells were plated in 96-well plate with a density of 5 × 10^3 cells/well in 100 μL. […] The medium was subsequently discarded, and 150 μL of DMSO was added to dissolve the formazan crystals. The absorbance was measured at 570 nm using a Molecular Devices Spectra Max M5 (Molecular Devices, USA).

[3] = tested on: Human CD3+ cells; experiment: Cytotoxicity to human CD3+ cells, CellTiter-Glo (CTG) assay; assay type: cell-based; conditions: 72 h, aCD3/aCD28 1 μg/mL, mean ± S.D (n = 3)
Experimental: Human CD3^+ cells with the purity above 95% were provided by LDEBIO company (Guangzhou, China). CD3^+ cells were plated in the 96-well plate with a density of 1 × 10^5 cells/well in 100 μL of DMEM medium containing 10% FBS. The 50 μL of anti-CD3 antibody and anti-CD28 antibody (aCD3 and aCD28, final concentration of 1 μg/mL for each) were added into 96-well plate. […] CellTiter-Glo (CTG) reagent was added into the wells to measure CD3^+ cell viability.

[4] = tested on: Human CD3+ cells; experiment: IFN-γ secretion by human CD3+ cells in vitro (ELISA), rescue of PD-L1-mediated inhibition; assay type: cell-based; conditions: for IFN-γl: aCD3/aCD28 1 μg/mL + PD-L1 protein 10 nM, 72 h, single samples
Experimental: Human CD3^+ cells were plated in the 96-well plate with a density of 1 × 10^5 cells/well in 100 μL of DMEM containing 10% FBS. The 50 μL of aCD3 and aCD28 (final concentration of 1 μg/mL for each) were added into 96-well plate without or with 50 μL of human PD-L1 protein (final concentation of 10 nM). […] The supernatants were collected for detection of IFN-γ by using human IFN-γ ELISA Kit.

[5] = tested on: B16-F10 tumors; experiment: B16-F10 tumor isograft model, tumor growth; assay type: in vivo, mice; conditions: for Tumor volume / Tumor weight: single mice
[6] = tested on: IFN-γ; experiment: Plasma IFN-γ level in melanoma-bearing mice (ELISA); assay type: in vivo
[7] = tested on: T lymphocytes in tumors; experiment: Flow cytometry of T lymphocytes in tumors from melanoma-bearing mice; assay type: in vivo; conditions: for % Treg of CD4^+ / % CD3^+ of lymphocyte / % CD4^+ of CD3^+ / % CD8^+ of CD3^+ / % CD8^+IFN-γ of CD3D^+CD8^+: tumor, day 20, single mice; for % Treg of CD4^+: Treg = CD4+CD25+CD127low/-
[8] = Pharmacokinetics in plasma and tumor from melanoma-bearing mice (LC-MS/MS); assay type: in vivo; conditions: single oral dose 60 mg/kg; for concentration at 1 h / concentration at 3 h: male, C57BL/6NCrl, mouse, plasma, po; for concentration at 1 h / concentration at 3 h / Concentration in Tumor: 60 mg/kg
Experimental: At 1h, 3h and 8h after the dosing, 5 mice were decapitated, respectively, for collecting plasma and tumor tissues. All plasma samples were centrifuged for 10 min at 3000 g, separated and stored at -20 °C for followed analysis. The tumor tissues were homogenated in water (w/v = 1:4). The LC-MS/MS system consisted of an Agilent 1100 series HPLC system (Agilent Technologies, Waldbronn, USA) and a TSQ Quantum Assess tandem mass spectrometer (Thermo Electron Corporation, San Jose, CA, USA) equipped with ESI ion source operation in the positive mode. Data acquisition and processing were accomplished using the Xcaliber workstation. The chromatography separation was performed on a Waters symmetry CLU columns (150 × 2.1 mm i.e., 3.5 am, Warders, USA) with the flow rate of 0.2 ml/min in isocratic elution. The mobile phase consisted of acetonitrile-methanol-water (50:30:20, v/v/v) containing 0.1 mm ammonium acetate and 0.01% glacial acetic acid. The selective reactions monitoring mode was used to detect the analyses. […] The spray voltage was 4 kv. Sheath gas and auxilinry gas were 30 and 5 psi, respectively. The capillary temperature was 350 °C and argon gas pressure was 1.5 milli-Torr.

[9] = molecular target: PD-1 and PD-L1 binding; design: method as in PMID 27083005; conditions: HTRF binding assay; cited from earlier work
[10] = 30 mg/kg oral twice daily, day 20
[11] = treatment groups (30 and 60 mg/kg), P < 0.05, n = 6

COc1nc(OCc2cccc(-c3ccccc3)c2C)ccc1CNCCNC(C)=O [PCC0208025, N-(2-{[2-Methoxy-6-(2-methyl-biphenyl-3-ylmethoxy)-pyridin-3-ylmethyl]-amino}-ethyl)-acetamide]
IC50 [1]: 32.1 ± 2.3 µM
IC50 ([2]; 24 h): 21.9 ± 2.9 µM
IC50 ([2]; 48 h): 15.3 ± 3.4 µM
IC50 [3]: 10.3 ± 1.3 µM
PD-L1-mediated inhibition of IFN-γ production ([4]; 0.01 to 1 μM, vs aCD3/aCD28 and PD-L1 group, P < 0.05, n = 6): markedly rescued
IFN-γl ([4]; substance 0.1 mM (so in the source)): 768.3 pg/mL and 1056.6 pg/mL and 850.5 pg/mL and 945.6 pg/mL and 689.7 pg/mL and 789.4 pg/mL
IFN-γl ([4]; substance 1 mM (so in the source)): 798.3 pg/mL and 824.3 pg/mL and 997.0 pg/mL and 723.5 pg/mL and 908.8 pg/mL and 857.7 pg/mL
IFN-γl ([4]; substance 10 mM (so in the source)): 468.7 pg/mL and 398.5 pg/mL and 576.3 pg/mL and 435.3 pg/mL and 587.5 pg/mL and 523.4 pg/mL
tumor weight compared with the control group ([5]; 30 mg/kg and 60 mg/kg, P < 0.05, n = 8): significantly decreased
tumor volumes compared with the control group ([5]; 30 mg/kg and 60 mg/kg, day 20, P < 0.05, n = 8): significantly decreased
Tumor volume ([5]; 30 mg/kg oral twice daily, day 7): 99.3 mm^3 and 102.9 mm^3 and 86.2 mm^3 and 112.1 mm^3 and 129.3 mm^3 and 84.9 mm^3 and 90.7 mm^3 and 100.1 mm^3
Tumor volume ([5]; 30 mg/kg oral twice daily, day 9): 94.0 mm^3 and 102.4 mm^3 and 154.1 mm^3 and 112.8 mm^3 and 131.0 mm^3 and 131.8 mm^3 and 105.3 mm^3 and 143.3 mm^3
Tumor volume [5, 10]: 898.0 mm^3 and 1417.3 mm^3 and 1288.9 mm^3 and 1376.0 mm^3 and 1578.0 mm^3 and 1342.0 mm^3 and 1122.6 mm^3 and 879.0 mm^3
Tumor weight [5, 10]: 1578.0 mg
IR (inhibition rate of tumor growth) according to tumor weight ([5]; 60 mg/kg oral gavage twice daily, day 20): 50.1%
Tumor volume ([5]; 60 mg/kg oral twice daily, day 7): 88.0 mm^3 and 80.2 mm^3 and 120.2 mm^3 and 108.0 mm^3 and 102.8 mm^3 and 96.6 mm^3 and 115.1 mm^3 and 94.6 mm^3
Tumor weight ([5]; 60 mg/kg oral twice daily, day 20): 1678.4 mg
IFN-γ level in plasma ([6]; 60 mg/kg oral twice daily, day 20, single mice): 1678.5 pg/mL and 1589.6 pg/mL and 1467.7 pg/mL and 1256.8 pg/mL and 1756.2 pg/mL and 1476.1 pg/mL
plasma IFN-γ levels compared with the control group ([6]; 30 and 60 mg/kg, P < 0.05, n = 6): markedly elevated
percentage of CD4^+CD25^+CD127^low/− (Treg) in tumor compared with the control group ([7]; 30 mg/kg and 60 mg/kg, P < 0.05, n = 6): significantly decreased
percentage of CD3^+CD4^+ T cells in tumor compared with the control group ([7]; 60 mg/kg group, P < 0.05, n = 6): significant decreases
percentage of CD3^+ T cells in tumor compared with the control group [7, 11]: markedly increased
percentage of CD3^+CD8^+ T cells in tumor compared with the control group [7, 11]: markedly increased
percentage of CD8^+IFN-γ^+ T cells in tumor compared with the control group [7, 11]: markedly increased
% Treg of CD4^+ ([7]; 30 mg/kg, 30 mg/kg): 26.25% and 33.66% and 35.98% and 35.44% and 36.86% and 31.41%
% CD3^+ of lymphocyte ([7]; 30 mg/kg, 30 mg/kg): 58.95% and 61.13% and 52.42% and 62.48% and 58.92% and 54.72%
% CD4^+ of CD3^+ ([7]; 30 mg/kg, 30 mg/kg): 38.97% and 39.86% and 36.50% and 29.65% and 37.02% and 40.10%
% CD8^+ of CD3^+ ([7]; 30 mg/kg, 30 mg/kg): 38.80% and 39.05% and 45.77% and 42.49% and 39.23% and 36.71%
% CD8^+IFN-γ of CD3D^+CD8^+ ([7]; 30 mg/kg, 30 mg/kg): 27.98% and 25.40% and 24.84% and 24.39% and 22.29% and 22.23%
% Treg of CD4^+ ([7]; 60 mg/kg, 60 mg/kg): 32.63% and 30.22% and 32.76% and 31.72% and 28.26%
% CD3^+ of lymphocyte ([7]; 60 mg/kg, 60 mg/kg): 72.64% and 70.58% and 61.04% and 62.21% and 61.98% and 64.77%
% CD4^+ of CD3^+ ([7]; 60 mg/kg, 60 mg/kg): 36.42% and 31.49% and 39.77% and 27.21% and 38.87% and 37.34%
% CD8^+ of CD3^+ ([7]; 60 mg/kg, 60 mg/kg): 40.72% and 50.51% and 43.82% and 50.59% and 42.04% and 42.77%
% CD8^+IFN-γ of CD3D^+CD8^+ ([7]; 60 mg/kg, 60 mg/kg): 30.80% and 35.94% and 30.46% and 29.24% and 28.35% and 27.49%
concentration at 1 h ([8]; 1h, n = 5, read-out: average concentration in plasma): ~4.36 nM
concentration at 1 h ([8]; 1h, single mice, read-out: Concentration in Plasma): 3.8 nM
concentration at 3 h ([8]; 3h, n = 5, read-out: average concentration in plasma): ~3.94 nM
concentration at 3 h ([8]; 3h, single mice, read-out: Concentration in Plasma): 4.16 nM
average concentration in tumor ([8]; 1h, n = 5): about 160.7 nmol/kg
Concentration in Tumor ([8]; 1h, single mice): 167.3 nmol/kg and 207.3 nmol/kg and 154.8 nmol/kg and 139.1 nmol/kg and 136.3 nmol/kg
average concentration in tumor ([8]; 3h, n = 5): ~196.7 nmol/kg
Concentration in Tumor ([8]; 3h, single mice): 185.3 nmol/kg and 206.5 nmol/kg and 218.5 nmol/kg and 178.7 nmol/kg
average concentration in tumor ([8]; 8h, n = 5): ~127.3 nmol/kg
Concentration in Tumor ([8]; 8h, single mice): 132.4 nmol/kg and 146.7 nmol/kg and 123.3 nmol/kg and 103.8 nmol/kg and 133.2 nmol/kg
IC50 [9]: 0.018 µM

From article PMC7098565 (PLoS ONE, 2020)
